{"source": "patent US8344028B2", "about": "“Gamma-amino-butyric acid derivatives as GABAB receptor ligands” (XenoPort, Inc., priority 2009, dated 2013)", "biological_target": "GABAB receptor (Homo sapiens, UniProt Q9UBS5)", "sequence (Q9UBS5 20-961)": "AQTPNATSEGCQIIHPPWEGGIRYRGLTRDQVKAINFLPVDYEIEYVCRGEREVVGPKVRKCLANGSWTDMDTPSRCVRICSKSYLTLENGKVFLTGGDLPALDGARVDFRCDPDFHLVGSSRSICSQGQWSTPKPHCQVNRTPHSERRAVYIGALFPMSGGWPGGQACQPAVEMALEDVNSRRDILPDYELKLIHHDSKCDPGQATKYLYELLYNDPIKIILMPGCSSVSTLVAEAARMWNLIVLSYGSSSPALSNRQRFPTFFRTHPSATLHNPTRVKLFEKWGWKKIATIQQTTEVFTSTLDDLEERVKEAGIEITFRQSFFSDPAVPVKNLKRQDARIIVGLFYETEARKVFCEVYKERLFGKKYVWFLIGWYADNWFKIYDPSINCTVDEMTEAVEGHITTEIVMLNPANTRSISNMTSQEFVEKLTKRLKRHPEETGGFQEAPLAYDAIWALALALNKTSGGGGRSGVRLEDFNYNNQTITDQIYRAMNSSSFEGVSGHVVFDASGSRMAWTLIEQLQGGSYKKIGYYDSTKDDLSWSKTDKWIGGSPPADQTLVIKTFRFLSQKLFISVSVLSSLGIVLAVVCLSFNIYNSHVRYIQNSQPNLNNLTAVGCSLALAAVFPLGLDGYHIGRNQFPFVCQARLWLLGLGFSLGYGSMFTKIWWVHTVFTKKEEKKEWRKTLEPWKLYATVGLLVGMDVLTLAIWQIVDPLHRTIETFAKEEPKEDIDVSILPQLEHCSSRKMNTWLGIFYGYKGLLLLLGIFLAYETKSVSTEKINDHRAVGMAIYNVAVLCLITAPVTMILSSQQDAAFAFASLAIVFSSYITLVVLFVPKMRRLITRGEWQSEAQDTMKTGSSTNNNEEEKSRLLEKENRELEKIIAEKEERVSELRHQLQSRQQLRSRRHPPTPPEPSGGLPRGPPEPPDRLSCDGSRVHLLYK", "sequence (O75899 42-941 partner)": "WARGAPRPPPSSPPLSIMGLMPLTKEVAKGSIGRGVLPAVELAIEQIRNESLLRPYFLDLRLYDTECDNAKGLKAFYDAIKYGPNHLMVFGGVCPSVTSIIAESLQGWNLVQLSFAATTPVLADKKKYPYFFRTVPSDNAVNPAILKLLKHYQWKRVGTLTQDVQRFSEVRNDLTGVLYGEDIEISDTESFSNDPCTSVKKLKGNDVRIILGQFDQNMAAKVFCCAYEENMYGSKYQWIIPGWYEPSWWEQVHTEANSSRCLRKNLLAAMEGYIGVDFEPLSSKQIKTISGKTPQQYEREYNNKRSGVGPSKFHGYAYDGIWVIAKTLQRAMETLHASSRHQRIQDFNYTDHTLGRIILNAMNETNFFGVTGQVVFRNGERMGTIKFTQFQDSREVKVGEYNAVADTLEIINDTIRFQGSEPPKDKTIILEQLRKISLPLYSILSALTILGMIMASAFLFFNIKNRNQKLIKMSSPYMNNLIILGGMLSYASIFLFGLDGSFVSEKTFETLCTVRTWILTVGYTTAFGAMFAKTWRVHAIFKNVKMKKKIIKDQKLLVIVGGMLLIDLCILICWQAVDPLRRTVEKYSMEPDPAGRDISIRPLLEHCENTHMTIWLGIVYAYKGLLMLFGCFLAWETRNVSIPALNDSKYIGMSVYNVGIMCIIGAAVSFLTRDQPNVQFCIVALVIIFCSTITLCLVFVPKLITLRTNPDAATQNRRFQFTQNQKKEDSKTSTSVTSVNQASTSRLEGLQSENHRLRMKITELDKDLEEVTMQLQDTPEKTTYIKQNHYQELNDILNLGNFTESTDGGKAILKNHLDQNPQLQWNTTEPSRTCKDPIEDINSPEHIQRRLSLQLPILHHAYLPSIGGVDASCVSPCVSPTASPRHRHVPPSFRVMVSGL", "assay": "GABAB receptor agonist or partial agonist activity by binding, electrophysiology, cAMP and/or Ca2+ assay methods (Examples 83-86)", "format": "cell-based", "description": "An assay using rat cerebral cortex membranes was used to determine the affinity of GABAB receptor ligands for the GABAB receptor.\nAn assay buffer of 50 mM Tris pH 7.4 was prepared with 100 μM of isoguvacine, to block GABAA interactions. The assay buffer with isoguvacine was used for dilution of membranes, compounds, and radiolabel.\nRat cerebral cortex membranes were diluted in assay buffer at 1 mg/mL and aliquoted into a 96-well plate at 900 μL/well. Buffer or test compound were added at 20-times final concentration in the buffer at 50 μL/well. Membranes and test compounds or buffer were incubated for 10 min. at room temperature. Radiolableled [S—(R*,R*)]-[3-[[1-(3,4-dichlorophenyl)ethyl]amino]-2-hydroxypropyl](cyclohexylmethyl) phosphinic acid (CGP54626) was then added at 50 μL/well in the buffer at 1-10 nM concentration in 50 μl. […] The assay mixture was filtered using Brandell filtration apparatus and GFB filters, washed twice with 3 mL of 4° C., 50 mM Tris pH 7.4, buffer without isoguvacine. The filters were then dried at room temperature and the dried filters punched out and placed in individual vials. Three (3) mL of scintillation fluid was added to each vial and the radiolabel counted on the scintillation counter. The inverse amount of radiolabel was indicative of binding of a test compound to the GABAB receptor.\nThe following procedure was used to determine the level of intracellular cAMP. Recombinant HEK cells expressing the GABAB R1a2 receptor were used in the experiments. cAMP levels were measured using a cAMP XS^+ HitHunter™ Chemiluminescence Assay Kit (90-0075-02, GE Healthcare Biosciences Corp.). Cells were seeded overnight at 5,000 cells per well, in black, clear bottom 96-well plates. The following morning, cells were washed twice with 100 μL PBS per well. Forskolin was weighed out and dissolved in DMSO to a final concentration 100 mM. One-hundred (100) μM forskolin solutions were prepared in PBS with and without test compound at 1-times final concentration. Thirty (30) μL of the test solutions were added to the wells and incubated for 1 h at room temperature. The cAMP concentration was determined according to the protocol described in the cAMP assay kit, maintaining the plate at room temperature and in the dark. […] Each well was read for 6 seconds. The untransformed data was then analyzed.\nThe following procedure was used to determine the GABAB receptor agonist activity of a compound as reflected by activation of Ca^2+ signaling. HEK TREx cells expressing GABABR1a2 under tetracycline induction control, and Gqi chimeric protein (expressed constitutively), allowing GABABR coupling through the Ca^2+ signaling pathway were used in the experiments.\nCells were seeded in media containing tetracycline overnight at 100,000 cells/well, in black, clear-bottom, 96-well plates. The following morning, cells were washed twice with 100 μL HBSS buffer per well. Fluorescent Ca^2+ indicator dye was prepared using the materials and procedure described in the F362056 Fluo-4 NW Calcium Assay Kit (Invitrogen, Carlsbad, Calif.). Ten (10) mL of kit buffer and 100 μl of kit Probenecid were added to individual kit dye vials, and rolled back and forth several times to dissolve the dye. Cells were then loaded into the dye solution at 50 μL per well. The cells and dye were incubated for 30 min at 37° C., and then incubated for an additional 30 min at room temperature in the dark. Test compounds are dissolved in HBSS buffer at twice final concentration. Duplicate wells were used for each unique condition. Solution containing the test compound was added to the wells using a FLEXStation II (Molecular Devices, Sunnyvale, Calif.). Using the instrument in kinetic mode in which each well was read every 2 sec over a total collection time of 50 sec fluorescence was measured using an excitation wavelength 494 nm and a detection wavelength of 516 nm. A normalized fluorescence value for each well was calculated using the following procedure."}
{"molecule": "Cl.N#Cc1cc(-c2cc([C@H](CN)CC(=O)O)ccc2Cl)ccc1F", "note": "[(3R)-4-amino-3-[4-chloro-3-(3-cyano-4-fluorophenyl)phenyl]butanoic acid hydrochloride]", "values": [{"measurement": "GABAB receptor agonist or partial agonist activity", "value": "agonist or partial agonist activity"}]}
{"molecule": "Cc1ccc(CNc2cc([C@H](CN)CC(=O)O)ccc2Cl)cc1.Cl", "note": "[(3R)-4-amino-3-(4-chloro-3-{[(4-methylphenyl)methyl]amino}phenyl)butanoic acid hydrochloride]", "values": [{"measurement": "GABAB receptor agonist or partial agonist activity", "value": "agonist or partial agonist activity"}]}
{"molecule": "Cl.NC[C@H](CC(=O)O)c1ccc(Cl)c(NCc2cccc(F)c2)c1", "note": "[(3R)-4-amino-3-(4-chloro-3-{[(3-fluorophenyl)methyl]amino}phenyl)butanoic acid hydrochloride]", "values": [{"measurement": "GABAB receptor agonist or partial agonist activity", "value": "agonist or partial agonist activity"}]}
{"molecule": "Cl.NC[C@H](CC(=O)O)c1ccc(Cl)c(-c2cncc3ccccc23)c1", "note": "[(3R)-4-amino-3-(4-chloro-3-(4-isoquinolyl)phenyl)butanoic acid hydrochloride]", "values": [{"measurement": "GABAB receptor agonist or partial agonist activity", "value": "agonist or partial agonist activity"}]}
{"molecule": "Cl.N#Cc1ccc(O)c(-c2cc([C@H](CN)CC(=O)O)ccc2Cl)c1", "note": "[(3R)-4-amino-3-[4-chloro-3-(3-cyano-6-hydroxyphenyl)phenyl]butanoic acid hydrochloride]", "values": [{"measurement": "GABAB receptor agonist or partial agonist activity", "value": "agonist or partial agonist activity"}]}
{"molecule": "NC[C@H](CC(=O)O)c1ccc(Cl)c(NCc2cccnc2)c1", "note": "[(3R)-4-amino-3-{4-chloro-3-[(3-pyridylmethyl)amino]phenyl}butanoic acid]", "values": [{"measurement": "GABAB receptor agonist or partial agonist activity", "value": "agonist or partial agonist activity"}]}
{"molecule": "Cl.NC[C@H](CC(=O)O)c1ccc(Cl)cc1-c1cccc(C(=O)O)c1", "note": "[3-{2-[(1R)-2-amino-1-(carboxymethyl)ethyl]-5-chlorophenyl}benzoic acid hydrochloride]", "values": [{"measurement": "GABAB receptor agonist or partial agonist activity", "value": "agonist or partial agonist activity"}]}
{"molecule": "Cl.NC[C@H](CC(=O)O)c1ccc(Cl)c(-c2cncc(C(=O)O)c2)c1", "note": "[Example 48, 5-{5-[(1R)-2-Amino-1-(carboxymethyl)ethyl]-2-chlorophenyl}pyridine-3-carboxylic acid hydrochloride]", "values": [{"measurement": "GABAB receptor agonist or partial agonist activity", "value": "agonist or partial agonist activity"}]}
{"molecule": "Cl.NC[C@H](CC(=O)O)c1ccc(Cl)cc1-c1cccnc1", "note": "[Example 8, (3R)-4-Amino-3-[4-chloro-2-(3-pyridyl)phenyl]butanoic acid hydrochloride]", "values": [{"measurement": "GABAB receptor agonist or partial agonist activity", "value": "agonist or partial agonist activity"}]}
{"molecule": "Cc1ccc(-c2cc([C@H](CN)CC(=O)O)ccc2Cl)cc1C#N.Cl", "note": "[(3R)-4-amino-3-[4-chloro-3-(3-cyano-4-methylphenyl)phenyl]butanoic acid hydrochloride]", "values": [{"measurement": "GABAB receptor agonist or partial agonist activity", "value": "agonist or partial agonist activity"}]}
{"molecule": "NC[C@H](CC(=O)O)c1ccc(Cl)c(-c2cncc(C(F)(F)F)c2)c1", "note": "[(3R)-4-amino-3-{4-chloro-3-[5-(trifluoromethyl)(3-pyridyl)]phenyl}butanoic acid]", "values": [{"measurement": "GABAB receptor agonist or partial agonist activity", "value": "agonist or partial agonist activity"}]}
{"molecule": "Cl.NC[C@H](CC(=O)O)c1ccc(Cl)c(-c2cccc(O)c2)c1", "note": "[Example 34, (3R)-4-Amino-3-[4-chloro-3-(3-hydroxyphenyl)phenyl]butanoic acid hydrochloride]", "values": [{"measurement": "GABAB receptor agonist or partial agonist activity", "value": "agonist or partial agonist activity"}]}
{"molecule": "Cl.NC[C@H](CC(=O)O)c1ccc(Cl)c(NCc2ccccn2)c1", "note": "[Example 58]", "values": [{"measurement": "GABAB receptor agonist or partial agonist activity", "value": "agonist or partial agonist activity"}]}
{"molecule": "(3R)-4-amino-3-{4-chloro-3-[(2-pyridyl)carbonylamino]phenyl)carbonylamino]phenyl}butanoic acid", "values": [{"measurement": "GABAB receptor agonist or partial agonist activity", "value": "agonist or partial agonist activity"}]}
{"molecule": "Cl.NC[C@H](CC(=O)O)c1ccc(Cl)c(/C=C/c2ccccn2)c1", "note": "[3-[3-((1E)-2-(2-pyridyl)vinyl)-4-chlorophenyl](3R)-4-aminobutanoic acid hydrochloride]", "values": [{"measurement": "GABAB receptor agonist or partial agonist activity", "value": "agonist or partial agonist activity"}]}
{"molecule": "Cl.NC[C@H](CC(=O)O)c1ccc(Cl)c(Oc2ccncc2)c1", "note": "[(3R)-4-amino-3-(4-chloro-3-(4-pyridyloxy)phenyl)butanoic acid hydrochloride]", "values": [{"measurement": "GABAB receptor agonist or partial agonist activity", "value": "agonist or partial agonist activity"}]}
{"molecule": "NC[C@H](CC(=O)O)c1cc(Br)c(Cl)c(-c2cccnc2)c1", "note": "[(3R)-4-amino-3-(5-bromo-4-chloro-3-(3-pyridyl)phenyl)butanoic acid]", "values": [{"measurement": "GABAB receptor agonist or partial agonist activity", "value": "agonist or partial agonist activity"}]}
{"molecule": "Cc1ccc(C(=O)O)cc1-c1cc([C@H](CN)CC(=O)O)ccc1Cl.Cl", "note": "[3-{5-[(1R)-2-amino-1-(carboxymethyl)ethyl]-2-chlorophenyl}-4-methylbenzoic acid hydrochloride]", "values": [{"measurement": "GABAB receptor agonist or partial agonist activity", "value": "agonist or partial agonist activity"}]}
{"molecule": "Cl.NC[C@H](CC(=O)O)c1ccc(Cl)c(NS(=O)(=O)c2ccccn2)c1", "note": "[(3R)-4-amino-3-{4-chloro-3-[(2-pyridylsulfonyl)amino]phenyl}butanoic acid hydrochloride]", "values": [{"measurement": "GABAB receptor agonist or partial agonist activity", "value": "agonist or partial agonist activity"}]}
{"molecule": "Cl.NC[C@@H](CC(=O)O)c1ccc(Cl)c(-c2cccc(C(=O)O)c2)c1", "note": "[3-{5-[(1S)-2-amino-1-(carboxymethyl)ethyl]-2-chlorophenyl}benzoic acid hydrochloride]", "values": [{"measurement": "GABAB receptor agonist or partial agonist activity", "value": "agonist or partial agonist activity"}]}
{"molecule": "CS(=O)(=O)c1cccc(-c2cc([C@H](CN)CC(=O)O)ccc2Cl)c1.Cl", "note": "[Example 54, (3R)-4-Amino-3-{4-chloro-3-[3-(methylsulfonyl)phenyl]phenyl}butanoic acid hydrochloride]", "values": [{"measurement": "GABAB receptor agonist or partial agonist activity", "value": "agonist or partial agonist activity"}]}
{"molecule": "Cl.NC[C@H](CC(=O)O)c1ccc(Cl)c(Cc2ccncc2)c1", "note": "[(3R)-4-amino-3-[4-chloro-3-(4-pyridylmethyl)phenyl]butanoic acid hydrochloride]", "values": [{"measurement": "GABAB receptor agonist or partial agonist activity", "value": "agonist or partial agonist activity"}]}
{"molecule": "Cl.NC[C@H](CC(=O)O)c1ccc(Cl)c(-c2cccc(C(=O)O)n2)c1", "note": "[6-{5-[(1R)-2-amino-1-(carboxymethyl)ethyl]-2-chlorophenyl}pyridine-2-carboxylic acid hydrochloride]", "values": [{"measurement": "GABAB receptor agonist or partial agonist activity", "value": "agonist or partial agonist activity"}]}
{"molecule": "Cl.NC[C@H](CC(=O)O)c1ccc(Cl)c(-c2cc(F)c(F)c(F)c2)c1", "note": "[(3R)-4-amino-3-[4-chloro-3-(3,4,5-trifluorophenyl)phenyl]butanoic acid hydrochloride]", "values": [{"measurement": "GABAB receptor agonist or partial agonist activity", "value": "agonist or partial agonist activity"}]}
{"molecule": "Cl.NC[C@H](CC(=O)O)c1ccc(Cl)c(-c2cc(Cl)ccn2)c1", "note": "[(3R)-4-amino-3-[4-chloro-3-(4-chloro(2-pyridyl))phenyl]butanoic acid hydrochloride]", "values": [{"measurement": "GABAB receptor agonist or partial agonist activity", "value": "agonist or partial agonist activity"}]}
{"molecule": "Cl.N#Cc1cccc(-c2cc([C@H](CN)CC(=O)O)cc(Br)c2Cl)c1", "note": "[(3R)-4-amino-3-[3-bromo-4-chloro-5-(3-cyanophenyl]butanoic acid hydrochloride]", "values": [{"measurement": "GABAB receptor agonist or partial agonist activity", "value": "agonist or partial agonist activity"}]}
{"molecule": "COc1cccc(-c2cc([C@H](CN)CC(=O)O)ccc2Cl)c1.Cl", "note": "[Example 35, (3R)-4-Amino-3-[4-chloro-3-(3-methoxyphenyl)phenyl]butanoic acid hydrochloride]", "values": [{"measurement": "GABAB receptor agonist or partial agonist activity", "value": "agonist or partial agonist activity"}]}
{"molecule": "Cl.NC[C@H](CC(=O)O)c1ccc(Cl)cc1/C=C/c1ccccc1", "note": "[3-[2-((1E)-2-phenylvinyl)-4-chlorophenyl](3R)-4-aminobutanoic acid hydrochloride]", "values": [{"measurement": "GABAB receptor agonist or partial agonist activity", "value": "agonist or partial agonist activity"}]}
{"molecule": "Cl.NCc1cccc(-c2cccc([C@H](CN)CC(=O)O)c2)c1", "note": "[(3R)-4-amino-3-{3-[3-(aminomethyl)phenyl]phenyl}butanoic acid hydrochloride]", "values": [{"measurement": "GABAB receptor agonist or partial agonist activity", "value": "agonist or partial agonist activity"}]}
